# System: Erysiphe graminis forma specialis tritici
# Assay: Activity against powdery mildew of wheat, protective spray test on wheat seedlings cv. Kanzler
# Type: in vivo, Erysiphe graminis forma specialis tritici (on wheat)
# Conditions: sprayed to runoff 24 h before inoculation, rated visually after 7 days, untreated plants 90% disease
# Description: The active ingredients, separately or jointly, were prepared as a 10% strength emulsion in a mixture of 70% by weight of cyclohexanone, 20% by weight of Nekanil® LN (Lutensol® AP6, wetter with emulsifying and dispersing action based on ethoxylated alkylphenols) and 10% by weight of Wettol® EM (nonionic emulsifier based on ethoxylated castor oil) and diluted with water to give the desired concentration.
# Use Example 1—Activity Against Powdery Mildew of Wheat (Erysiphe graminis f. sp. […] f. sp. tritici)
# Leaves of wheat seedlings cv. “Kanzler” which have grown in pots were sprayed to runoff point with aqueous preparation of active ingredient made with a stock solution composed of 10% of active ingredient, 63% of cyclohexanone and 27% of emulsifier, and, 24 hours after the spray coating had dried on, dusted with spores of powdery mildew of wheat (Erysiphe graminis forma specialis tritici). The test plants were subsequently placed in a greenhouse at temperatures between 20 and 24° C. and a relative atmospheric humidity of 60 to 90%. After 7 days, the extent of the mildew development was determined visually in % disease of the total leaf area.
SMILES,"extent of mildew development, % disease of the total leaf area (4 ppm)","extent of mildew development, % disease of the total leaf area (16 ppm)"
"COc1cc(C)c(C(=O)c2c(Cl)ccc(Cl)c2C)c(OC)c1OC [I.1-02, 2,5-Dichloro-2′,6-dimethyl-4′,5′,6′-trimethoxybenzophenone]",no disease,no disease
"COc1cc(C)c(C(=O)c2c(F)ccc(F)c2C)c(OC)c1OC [I.5-02, 2,5-Difluoro-2′,6-dimethyl-4′,5′,6′-trimethoxybenzophenone]",1%,no disease

# — US20040082815A1, “Benzophenones, the production thereof and their use for controlling plant pathogenic fungi” (priority 2001, published 2004)
